Measurements published in patent US20240109885A1, “2,3-DIHYDRO-1H-PYRROLO[3,2-B]PYRIDINE DERIVATIVE, PREPARATION METHOD THEREFOR, AND APPLICATION THEREOF” (Abbisko Therapeutics Co., Ltd, priority 2020, published 2024).

Legend:
Assay type in all cases: cell-based
[1] = target: Ba/F3 EGFR-D770-N771ins_SVD (Homo sapiens, UniProt P00533, DUP768-770, cells depend on it); assay: Cell proliferation assay (CellTiter-Glo), Ba/F3 EGFR-D770-N771ins_SVD cells; conditions: 72 hrs, CTG assay, * = average of multiple measurements, read-out: Ba/F3 EGFR-D770-N771ins_SVD (nM), IC50 of cell proliferation
Chain of Ba/F3 EGFR-D770-N771ins_SVD (P00533 with tags, fused parts or gaps DUP768-770): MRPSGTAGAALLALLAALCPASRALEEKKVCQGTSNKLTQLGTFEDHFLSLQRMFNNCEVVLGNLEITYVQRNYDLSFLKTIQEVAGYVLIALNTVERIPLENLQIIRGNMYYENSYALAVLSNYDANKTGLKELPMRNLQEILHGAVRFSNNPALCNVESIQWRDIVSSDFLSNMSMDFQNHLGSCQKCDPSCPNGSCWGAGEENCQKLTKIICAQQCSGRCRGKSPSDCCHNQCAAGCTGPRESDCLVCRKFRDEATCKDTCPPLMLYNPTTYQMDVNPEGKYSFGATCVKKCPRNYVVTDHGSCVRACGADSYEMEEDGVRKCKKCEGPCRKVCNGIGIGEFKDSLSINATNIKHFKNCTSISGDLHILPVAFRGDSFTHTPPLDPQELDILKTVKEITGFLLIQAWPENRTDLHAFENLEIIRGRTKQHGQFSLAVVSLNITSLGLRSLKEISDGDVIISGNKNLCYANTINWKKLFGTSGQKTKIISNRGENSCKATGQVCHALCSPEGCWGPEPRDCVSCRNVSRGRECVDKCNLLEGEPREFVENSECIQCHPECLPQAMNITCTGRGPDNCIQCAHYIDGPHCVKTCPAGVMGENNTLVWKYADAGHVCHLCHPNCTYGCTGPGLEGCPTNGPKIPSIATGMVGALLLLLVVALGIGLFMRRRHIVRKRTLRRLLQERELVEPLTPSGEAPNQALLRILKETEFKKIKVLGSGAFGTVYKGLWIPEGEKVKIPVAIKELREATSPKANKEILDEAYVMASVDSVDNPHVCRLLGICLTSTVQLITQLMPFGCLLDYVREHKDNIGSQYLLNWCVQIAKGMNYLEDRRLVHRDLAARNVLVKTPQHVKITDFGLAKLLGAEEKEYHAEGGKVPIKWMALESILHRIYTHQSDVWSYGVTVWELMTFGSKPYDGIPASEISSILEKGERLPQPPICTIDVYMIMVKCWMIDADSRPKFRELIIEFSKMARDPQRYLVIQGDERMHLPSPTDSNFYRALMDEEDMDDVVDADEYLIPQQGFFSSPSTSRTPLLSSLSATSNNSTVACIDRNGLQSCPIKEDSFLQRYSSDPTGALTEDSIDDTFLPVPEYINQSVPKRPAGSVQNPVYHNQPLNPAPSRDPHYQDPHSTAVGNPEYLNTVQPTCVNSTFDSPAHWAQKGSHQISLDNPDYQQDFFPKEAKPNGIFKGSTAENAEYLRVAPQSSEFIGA
In short: (§1)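 Cells seeded overnight, then treated in triplicate with 9 concentrations (3.16-fold dilutions; 0.1% DMSO final) for 72 h at 37 °C, 5% CO2. Viability by CellTiter-Glo luminescence, normalised to cell and medium controls; IC50 (nM) from nonlinear sigmoidal fit.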

[2] = target: Ba/F3 EGFR-V769_D770insASV (Homo sapiens, UniProt P00533, DUP767-769, cells depend on it); assay: Cell proliferation assay (CellTiter-Glo), Ba/F3 EGFR-V769_D770insASV cells; conditions: 72 hrs, CTG assay, * = average of multiple measurements, read-out: Ba/F3 EGFR-V769_D770insASV (nM), IC50 of cell proliferation
Chain of Ba/F3 EGFR-V769_D770insASV (P00533 with tags, fused parts or gaps DUP767-769): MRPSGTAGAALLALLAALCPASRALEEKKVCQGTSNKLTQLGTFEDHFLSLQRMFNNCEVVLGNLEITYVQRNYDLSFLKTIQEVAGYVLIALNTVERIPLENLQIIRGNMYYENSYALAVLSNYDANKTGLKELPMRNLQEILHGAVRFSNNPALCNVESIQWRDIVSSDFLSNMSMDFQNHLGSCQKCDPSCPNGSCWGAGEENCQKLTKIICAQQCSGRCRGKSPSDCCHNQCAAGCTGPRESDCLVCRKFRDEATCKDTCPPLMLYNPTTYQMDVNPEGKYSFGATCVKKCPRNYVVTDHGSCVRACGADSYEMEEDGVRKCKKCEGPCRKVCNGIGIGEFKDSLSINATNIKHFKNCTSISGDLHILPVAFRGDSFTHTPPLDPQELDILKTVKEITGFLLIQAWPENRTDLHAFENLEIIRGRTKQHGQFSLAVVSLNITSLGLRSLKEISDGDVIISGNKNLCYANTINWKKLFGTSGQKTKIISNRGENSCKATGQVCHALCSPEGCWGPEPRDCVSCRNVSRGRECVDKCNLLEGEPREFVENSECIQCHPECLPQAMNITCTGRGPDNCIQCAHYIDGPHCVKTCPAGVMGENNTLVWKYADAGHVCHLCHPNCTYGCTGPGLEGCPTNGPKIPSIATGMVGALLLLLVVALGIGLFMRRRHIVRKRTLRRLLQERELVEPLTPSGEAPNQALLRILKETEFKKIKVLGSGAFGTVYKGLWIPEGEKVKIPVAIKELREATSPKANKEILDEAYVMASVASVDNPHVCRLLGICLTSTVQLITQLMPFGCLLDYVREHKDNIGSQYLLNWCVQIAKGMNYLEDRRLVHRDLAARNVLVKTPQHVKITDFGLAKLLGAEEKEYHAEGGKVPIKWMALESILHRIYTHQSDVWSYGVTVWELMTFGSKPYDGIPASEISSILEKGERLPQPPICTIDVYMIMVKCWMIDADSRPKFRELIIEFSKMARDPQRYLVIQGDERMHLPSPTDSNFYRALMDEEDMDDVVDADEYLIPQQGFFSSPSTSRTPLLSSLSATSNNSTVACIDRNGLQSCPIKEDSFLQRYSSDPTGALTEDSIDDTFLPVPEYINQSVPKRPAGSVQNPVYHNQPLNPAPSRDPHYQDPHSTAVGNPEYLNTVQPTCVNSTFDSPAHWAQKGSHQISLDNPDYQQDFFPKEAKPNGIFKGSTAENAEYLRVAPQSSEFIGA
In short: as §1

A431 (EGFR-WT) = assay: Cell proliferation assay (CellTiter-Glo), A431 cells; conditions: Homo sapiens, A-431, 72 hrs, CTG assay, * = average of multiple measurements
In short: as §1

SMILES | GI50 [1] [nM] | GI50 [2] [nM] | IC50 (A431 (EGFR-WT)) [nM]
C=CC(=O)Nc1cc(Nc2nccc(N3CC4(CCC4)c4nc(C)ccc43)n2)c(OCC(F)(F)F)nc1N(C)CCN(C)C [Example 56, N-(2-((2-(dimethylamino)ethyl) (methyl)amino)-5-((4-(5′-methylspiro [cyclobutane-1,3′-pyrrolo[3,2-b]pyridin]-1′(2′H)-yl)pyrimidin-2-yl)amino)-6-(2,2,2-trifluoroethoxy)pyridin-3-yl)acrylamide] | 12 | 35.4 | 348
C=CC(=O)Nc1cc(Nc2nccc(N3CC4(CCC4)c4ncccc43)n2)c(OCC(F)(F)F)nc1N(C)CCN(C)C [Example 57, N-(2-((2-(dimethylamino)ethyl) (methyl)amino)-5-((4-(spiro[cyclo-butane-1,3′-pyrrolo[3,2-b]pyridin]-1′(2′H)-yl)pyrimidin-2-yl)amino)-6-(2,2,2-trifluoroethoxy)pyridin-3-yl)acrylamide] | 32.7 | 79.7 | 673
C=CC(=O)Nc1cc(Nc2nccc(N3CC4(CCC4)c4ncccc43)n2)c(OC(F)F)cc1N(C)CCN(C)C [Example 62, N-(4-(difluoromethoxy)-2-((2-(dimethylamino)ethyl)(methyl)amino)-5-((4-(spiro[cyclobutane-1,3′-pyrrolo[3,2-b]pyridin]-1′(2′H)-yl)pyrimidin-2-yl)amino)phenyl) acrylamide] | 21.7 | 36.3 | 582
C=CC(=O)Nc1cc(Nc2nccc(N3CC4(CCC4)c4ncccc43)n2)c(OC)cc1N(C)CCN(C)C [Example 63, N-(2-((2-(dimethylamino)ethyl) (methyl)amino)-4-methoxy-5-((4-(spiro[cyclobutane-1,3′-pyrrolo [3,2-b]pyridin]-1′(2′H)-yl)pyrimidin-2-yl)amino)phenyl)acrylamide] | 39.6 | 116 | 532
C#Cc1ccc2c(n1)C(C)(C)CN2c1ccnc(Nc2cc(NC(=O)C=C)c(N(C)CCN(C)C)cc2OC(F)F)n1 [Example 68, N-(4-(difluoromethoxy)-2-((2-(dimethylamino)ethyl)(methyl)ami-no)-5-((4-(5-ethynyl-3,3-dimeth-yl-2,3-dihydro-1H-pyrrolo[3,2-b]pyridin-1-yl)pyrimidin-2-yl)amino)phenyl)acrylamide] | 6.5 | 17.1 | 673
C=CC(=O)Nc1cc(Nc2nccc(N3CC(C)(C)c4nc(C5CC5)ccc43)n2)c(OC)nc1N(C)CCN(C)C [Example 69, N-(5-((4-(5-cyclopropyl-3,3-dimethyl-2,3-dihydro-1H-pyrrolo [3,2-b]pyridin-1-yl)pyrimidin-2-yl)amino)-2-((2-(dimethylamino)ethyl) (methyl)amino)-6-methoxypyridin-3-yl)acrylamide] | 24.8 | 53.7 | 317

Next, values leading:

GI50 [1] [nM] | GI50 [2] [nM] | IC50 (A431 (EGFR-WT)) [nM] | SMILES
34.5 | 110 | 747 | C=CC(=O)Nc1cc(Nc2nccc(N3CC(C)(C)c4nc(-n5cnc(C)c5)ccc43)n2)c(OC)cc1N(C)CCN(C)C [Example 60, N-(5-((4-(3,3-dimethyl-5-(4-methyl-1H-imidazole-1-yl)-2,3-dihydro-1H-pyrrolo[3,2-b]pyridin-1-yl)pyrimidin-2-yl)amino)-2-((2-(dimethylamino)ethyl)(methyl)amino)-4-methoxyphenyl)acrylamide]
14.1 | 46.4 | 18.7 | C=CC(=O)Nc1cc(Nc2ncnc(N3CC4(CCC4)c4nc(C)ccc43)n2)c(OC)cc1N(C)CCN(C)C [Example 61, N-(2-((2-(dimethylamino)ethyl) (methyl)amino)-4-methoxy-5-((4-(5′-methylspiro[cyclobutane-1,3′-pyrrolo[3,2-b]pyridin]-1′(2′H)-yl)-1,3,5-triazin-2-yl)amino)phenyl) acrylamide]
17.1 | 31.9 | 494 | C=CC(=O)Nc1cc(Nc2nccc(N3CC4(CCC4)c4nc(C)ccc43)n2)c(OC(F)F)cc1N(C)CCN(C)C [Example 64, N-(4-(difluoromethoxy)-2-((2-(dimethylamino)ethyl)(methyl)amino)-5-((4-(5′-methylspiro[cyclo-butane-1,3′-pyrrolo[3,2-b]pyridin]-1′(2′H)-yl)pyrimidin-2-yl)amino)phenyl)acrylamide]
